One compound from patent publication US20240335547A1, “MODIFIED CHOLIC ACID CONJUGATES” (priority 2022, published 2024) can be followed below.

The structures appear in SMILES notation. In brackets after ≈: the same amount, converted by molar mass. Several values for one entry are separate records, joined by “and”; a condition that tells them apart may be missing. Equal values may be shown once. Read-outs that look alike come from different tables or passages of the source.

Data set [1] can be described thus: Cytotoxicity in human primary cell cultures (Trypan Blue Staining). The format is cell-based. The conditions noted are these: human, CC50. The method, then:
(1) HFF (human foreskin fibroblast) cells (2×105) were seeded with 2 ml of DMEM medium supplemented with 10% FBS in each well of two 12-well tissue culture plates. (2) Cells were cultured for 3 days. CSA-44 was added to test for cell toxicity. Eleven concentrations were tested: 40 μg/ml, 30 μg/ml, […], 17.5 μg/ml, 15 μg/ml, 12.5 μg/ml, 10 μg/ml, 7.5 μg/ml, 5 μg/ml, 2.5 μg/ml, and 1 μg/ml. Samples with concentration of 0 μg/ml were used as the control. Each concentration was tested in duplicates with two wells. (3) Cells were cultured for 48 hours with CSA-44. Trypan Blue Staining was used to determine the numbers of living and dead cells on a hemocytometer. Percentages of living and dead cells in each sample were calculated.
(1) HFF cells (2×105) were seeded with 2 ml of DMEM medium supplemented with 10% FBS in each well of two 12-well tissue culture plates. (2) Cells were cultured for 3 days. CMA Conjugate was added to test for cell toxicity. Eleven concentrations were tested. They were 100 μg/ml, 80 μg/ml, 60 μg/ml, 50 μg/ml, 40 μg/ml, 30 μg/ml, 25 μg/ml, 20 μg/ml, 15 μg/ml, 10 μg/ml, and 5 μg/ml. Samples with concentration of 0 μg/ml were used as the control. Each concentration was tested in duplicates with two wells. (3) Cells were cultured for 48 hours with CMA Conjugate. […] Percentages of living and dead cells in each sample were calculated.

The test system of another data set is human coronavirus 229E. Nature of the data set: Therapeutic activity against human coronavirus 229E in HFF cells. In kind it is cell-based. Particulars: Human coronavirus 229E, HFF; added 24 hours post infection, cells cultured for two weeks, cell viability; read-out: EC50. The method, then: (1) HFF cells (5×104) were seeded with 1 ml of DMEM media supplemented with 10% FBS in each well of four 24-well tissue culture plates. (2) Cell were cultured for 3 days until HFF cells in each well attained 90% confluency (media was changed 1 day before infection). 10 μl of the 10-time diluted original solution of coronavirus, about 1×10^5 PFU were added into each well. Infection was allowed to proceed overnight. (3) The media was changed 24 hours post infection. CSA-44 was added to test their anti-viral effects. Ten different concentrations of the drug were tested. They were 15 μg/ml, 10 μg/ml, 9 μg/ml, 8 μg/ml, 7 μg/ml, 6 μg/ml, 5 μg/ml, 4 μg/ml, 3 μg/ml, and 2 μg/ml with 0 μg/ml as the control. Each concentration has 12 wells for test. Cells were cultured for two weeks, and cell viability was quantified. CSA-44 was effective in inhibiting viral replication and growth. The values of EC50 (where EC is the concentration of the active that gives 50% of the maximal response) of CSA-44 is identified as 4 μg/ml.
(1) HFF cells (5×104) were seeded with 1 ml of DMEM media supplemented with 10% FBS in each well of four 24-well tissue culture plates. (2) Cells were cultured for 3 days until HFF cells in each well attained 90% confluency (media was changed 1 day before infection). Ten μl of the 10-time diluted original solution of coronavirus, about 1×10^5 PFU, were added into each well. Infection was allowed to proceed overnight. (3) The media was changed 24 hours post infection. Different concentrations of CSA-44 were added to test their anti-viral effects. Each concentration has 12 wells for test. Cells were cultured in the presence of CSA-44 for […] and cell viability was quantified.
(1) HFF cells (5×104) were seeded with 1 ml of DMEM media supplemented with 10% FBS in each well of four 24-well tissue culture plates. (2) Cells were cultured for 3 days until HFF cells in each well attained 90% confluency (media was changed 1 day before infection). […] Cells were cultured for two weeks, and cell viability was quantified. […]

For data set [2], the system named is Calu-3 cells (ATCC #HTB-55). The conditions noted are these: for % Luminescence / Luminescence intensity: 3 repeats.

`C[C@H](CCC(=O)NCCNC(=O)CCCC[C@@H]1SCC2NC(=O)NC21)C1CCC2C3C(C[C@H](OC(=O)CCN)[C@@]21C)[C@@]1(C)CC[C@@H](OC(=O)CCN)CC1C[C@H]3OC(=O)CCN` (stereo partly drawn) [Compound 12] registered a CC50 at 48 h in data set [1] of roughly 65 µg/mL (≈ 73 µM). In addition, the EC50 with human coronavirus 229E is 3 µg/mL (≈ 3.37 µM). Further, the “% Luminescence” value in data set [2] (20 uM) was 102% and 97% and 101%; in data set [2] (26.7 uM) it was 103% and 97% and 99%; in data set [2] (35.6 uM) it was 105% and 103% and 104%; in data set [2] (47.5 uM), 110% and 105% and 104%; in data set [2] (63.3 uM), 111% and 110% and 106%; in data set [2] (84.4 uM) it was 110% and 109% and 108%. Moreover, the “% Luminescence” value in data set [2] (112.5 uM) was 108% and 106% and 105%; in data set [2] (150 uM), 107% and 104% and 106%; in data set [2] (200 uM) it was 111% and 107% and 106%. For the same compound, the Luminescence intensity is 27,723 and 26,322 and 27,521 in data set [2] (20 uM); 27,962 and 26,310 and 26,857 in data set [2] (26.7 uM); 28,560 and 28,084 and 28,199 in data set [2] (35.6 uM); 29,946 and 28,451 and 28,177 in data set [2] (47.5 uM); 30,079 and 29,936 and 28,795 in data set [2] (63.3 uM); 29,975 and 29,736 and 29,345 in data set [2] (84.4 uM). Also, the Luminescence intensity in data set [2] (112.5 uM) is 29,458 and 28,788 and 28,587; in data set [2] (150 uM), 29,194 and 28,202 and 28,754; in data set [2] (200 uM), 30,150 and 29,181 and 28,872. Moreover, in data set [2] (human, 3 days), the CC50 is greater than 200 µM.

The term CC50 denotes the concentration giving 50% cytotoxicity. One may read the EC50 as the midpoint of the concentration-response curve.
